Source: BigSolDB 2.1

COc1ccc(P(=O)(c2ccc(OC)cc2)c2ccc(OC)cc2)cc1
Conditions | solubility (mole fraction)
in 2-butanone, 288.15 K | 0.00567
in 2-butanone, 293.16 K | 0.00642
in 2-butanone, 298.17 K | 0.00725
in 2-butanone, 303.18 K | 0.00814
in 2-butanone, 308.14 K | 0.00907
in 2-butanone, 313.16 K | 0.0102
in 2-butanone, 318.17 K | 0.0112
in 2-butanone, 323.16 K | 0.0125
in 2-butanone, 328.17 K | 0.0139
in 2-butanone, 333.16 K | 0.0153
in 2-ethoxyethanol, 293.16 K | 0.00573
in 2-ethoxyethanol, 298.17 K | 0.00716
in 2-ethoxyethanol, 303.18 K | 0.00919
in 2-ethoxyethanol, 308.14 K | 0.0114
in 2-ethoxyethanol, 313.16 K | 0.0143
in 2-ethoxyethanol, 318.17 K | 0.0175
in 2-ethoxyethanol, 323.16 K | 0.0223
in 2-ethoxyethanol, 328.17 K | 0.0276
in 2-ethoxyethanol, 333.17 K | 0.033
in 2-ethoxyethanol, 338.25 K | 0.0401
in 2-ethoxyethanol, 343.17 K | 0.0482
in benzene, 293.16 K | 0.00031
in benzene, 298.17 K | 0.00039
in benzene, 303.18 K | 0.00048
in benzene, 308.14 K | 0.00061
in benzene, 313.16 K | 0.00076
in benzene, 318.17 K | 0.00094
in benzene, 323.16 K | 0.00112
in cyclohexane, 298.15 K | 0.00053
in cyclohexane, 304.05 K | 0.00082
in cyclohexane, 308.32 K | 0.00113
in cyclohexane, 313.95 K | 0.00166
in cyclohexane, 318.45 K | 0.00229
in cyclohexane, 323.65 K | 0.00322
in cyclohexane, 328.45 K | 0.00455
in cyclohexane, 332.85 K | 0.00589
in cyclohexane, 337.65 K | 0.00806
in diethyl ether, 293.16 K | 0.00607
in diethyl ether, 296.17 K | 0.00739
in diethyl ether, 299.18 K | 0.00929
in diethyl ether, 301.16 K | 0.0106
in diethyl ether, 303.15 K | 0.0118
in ethanol, 298.25 K | 0.00037
in ethanol, 303.75 K | 0.00049
in ethanol, 308.05 K | 0.00067
in ethanol, 313.35 K | 0.00102
in ethanol, 317.75 K | 0.00128
in ethanol, 322.35 K | 0.00168
in ethanol, 328.15 K | 0.00236
in methanol, 293.35 K | 0.00019
in methanol, 298.25 K | 0.00024
in methanol, 303.15 K | 0.00031
in methanol, 308.05 K | 0.00042
in methanol, 313.15 K | 0.00056
in methanol, 318.15 K | 0.00071
in methanol, 322.65 K | 0.00098
in toluene, 293.16 K | 0.00036
in toluene, 298.17 K | 0.00045
in toluene, 303.18 K | 0.00055
in toluene, 308.14 K | 0.00066
in toluene, 313.16 K | 0.00083
in toluene, 318.17 K | 0.00099
in toluene, 323.16 K | 0.00121
in toluene, 328.17 K | 0.00143
in toluene, 333.15 K | 0.00169

COc1ccc(P(c2ccc(OC)cc2)c2ccc(OC)cc2)cc1
Conditions | solubility (mole fraction)
in 2-butanone, 293.16 K | 0.00621
in 2-butanone, 298.17 K | 0.00684
in 2-butanone, 303.18 K | 0.00749
in 2-butanone, 308.14 K | 0.00815
in 2-butanone, 313.16 K | 0.00884
in 2-butanone, 318.17 K | 0.00962
in 2-butanone, 323.16 K | 0.0103
in 2-butanone, 328.17 K | 0.0113
in 2-butanone, 333.16 K | 0.0121
in 2-ethoxyethanol, 293.16 K | 0.00522
in 2-ethoxyethanol, 298.17 K | 0.00693
in 2-ethoxyethanol, 303.18 K | 0.00862
in 2-ethoxyethanol, 308.14 K | 0.0108
in 2-ethoxyethanol, 313.16 K | 0.0136
in 2-ethoxyethanol, 318.17 K | 0.0168
in 2-ethoxyethanol, 323.16 K | 0.0209
in 2-ethoxyethanol, 328.17 K | 0.0255
in 2-ethoxyethanol, 333.16 K | 0.0311
in 2-ethoxyethanol, 338.17 K | 0.0377
in 2-ethoxyethanol, 343.15 K | 0.0454
in benzene, 293.16 K | 0.00029
in benzene, 298.17 K | 0.00037
in benzene, 303.18 K | 0.00045
in benzene, 308.14 K | 0.00054
in benzene, 313.16 K | 0.00068
in benzene, 318.17 K | 0.00082
in benzene, 323.16 K | 0.00099
in cyclohexane, 299.15 K | 0.00054
in cyclohexane, 304.05 K | 0.00082
in cyclohexane, 308.85 K | 0.00107
in cyclohexane, 313.95 K | 0.00151
in cyclohexane, 318.45 K | 0.00231
in cyclohexane, 323.65 K | 0.00326
in cyclohexane, 328.45 K | 0.00436
in cyclohexane, 332.85 K | 0.00596
in cyclohexane, 337.65 K | 0.00848
in diethyl ether, 293.16 K | 0.00587
in diethyl ether, 296.17 K | 0.00721
in diethyl ether, 299.18 K | 0.00889
in diethyl ether, 301.16 K | 0.0101
in diethyl ether, 303.15 K | 0.0114
in ethanol, 293.16 K | 0.00084
in ethanol, 298.17 K | 0.00102
in ethanol, 303.18 K | 0.00121
in ethanol, 308.14 K | 0.00142
in ethanol, 313.16 K | 0.00173
in ethanol, 318.17 K | 0.00202
in ethanol, 323.16 K | 0.00241
in methanol, 293.16 K | 0.00022
in methanol, 298.17 K | 0.00029
in methanol, 303.18 K | 0.0004
in methanol, 308.14 K | 0.00051
in methanol, 313.16 K | 0.00066
in methanol, 318.17 K | 0.00083
in methanol, 323.16 K | 0.00107
in toluene, 293.16 K | 0.00035
in toluene, 298.17 K | 0.00042
in toluene, 303.18 K | 0.00051
in toluene, 308.14 K | 0.00061
in toluene, 313.16 K | 0.00075
in toluene, 318.17 K | 0.00089
in toluene, 323.16 K | 0.00105
in toluene, 328.17 K | 0.00123
in toluene, 333.15 K | 0.00145
